In patent US8088887B2, “Peptide-conjugates that bind to VEGF-stimulated or tumor vasculature and methods of treatment” (Academia Sinica, priority 2007, dated 2012):
Entries after “also recorded” stand apart in the source; their conditions may differ.

Tests used:
oral cancer xenografts = test: Peptide competitive inhibition of IVO-2 phage homing, oral cancer xenografts; type: in vivo, SCID mice
[1] = system: NSCLC tumor mass (CL1-5-derived tumors); test: Peptide competitive inhibition of PC5-52 phage homing, lung cancer xenografts; type: in vivo, SCID mice
Method: To investigate the targeting ability of PC5-52, phages were injected into the tail vein of SCID mice bearing human lung cancer cell-derived tumors and recovered after perfusion. We determined the titers of the phages in tumor mass and other normal organs. The phage clones, or control helper phage (insertless phage), were injected into the tail vein (i.v.) of SCID mice bearing human lung cancer tumor xenografts for 8 min or 24 h. After perfusion, xenograft tumors and organs were removed and the recovered phage titered. In peptide competitive inhibition experiments, described below, phage clones were co-injected with 100 μg synthetic peptide. After injection of candidate or control phage clones, the organs and tumors were removed and divided into two parts. One part was titered by ER2738, and another part was embedded in Optimal Cutting Temperature (OCT, Tissue-Tek, NL, USA). The OCT-embedded frozen tissues were sectioned at 5 microns and transferred to cold PBS buffer. Then, the sections were fixed with acetone-methanol (1:1), washed with PBS and immersed in blocking buffer (1% BSA in PBS) for 1 h. The blocked samples were then incubated with rat anti-mouse CD31 (BD Pharmingen, Mass., USA.), rabbit anti-rat Ab (Stressgen, Canada) and immersed in Rhodamine labeled goat anti-rabbit antibody (Jackson ImmunoResearch, Pa., USA.). […]

| Sequence | inhibition of IVO-2 homing to tumor tissue (oral cancer xenografts; co-injected peptide, FIG. 2D) | inhibition of PC5-52 homing to NSCLC tumor mass ([1]; 100 μg peptide co-injected with phage) | inhibition of tumor homing ability of PC5-52 ([1]; co-injected peptide, CL1-5-derived tumors, FIG. 2B/4B) | inhibition of IVO-2 homing to oral cancer xenografts (oral cancer xenografts; coinjection of 100 μg peptide) |
| --- | --- | --- | --- | --- |
| RLLDTNRPLLPY [Control peptide, synthetic control peptide, reference compound] | could not inhibit |  |  |  |
| SVSVGMKPSPRP [SP5-52] |  | 97% | inhibited markedly; also recorded: markedly inhibited | 95.9% |
